We go through 49 compounds from ChEMBL document CHEMBL4028802, “DILIrank: the largest reference drug list ranked by the risk for developing drug-induced liver injury in humans” (Drug Discov Today, 2016).

Positions of bridges follow the written chain, without caps; N, C: chain ends. Non-standard residues stand in square brackets, D forms with d. Residues, ends and D or L forms follow the SMILES beside them. hArg = N=C(N)NCCCC[C@H](N)C(=O)O; Mpa = O=C(O)CCS

Series [1] is filed under the species Homo sapiens. Put plainly: Liver toxicity in human assessed as induction of drug-induced liver injury by measuring severity class index.
For series [2], the species on record is Homo sapiens. Description: Liver toxicity in human assessed as induction of drug-induced liver injury by measuring verified drug-induced liver injury concern status.
Wherever DILI severity class is given: key of the grades not given here.

For `COc1cccc2c1C(=O)c1c(O)c3c(c(O)c1C2=O)C[C@@](O)(C(=O)CO)C[C@@H]3O[C@H]1C[C@H](N)[C@H](O)[C@H](C)O1` [DOXORUBICIN], the DILI_severity_class in the series filed under Homo sapiens [1] is 3. Moreover, the DILI_Concern entry in the series listed under Homo sapiens [2] is recorded as “Less-Dili-Concern”.
For the compound `C[C@H]1c2cccc(O)c2C(=O)C2=C(O)[C@]3(O)C(=O)C(C(N)=O)=C(O)[C@@H](N(C)C)[C@@H]3[C@@H](O)[C@@H]21.O` [DOXYCYCLINE], the DILI_severity_class in the series filed under Homo sapiens [1] was 3. Also, in the series listed under Homo sapiens [2], the DILI_Concern result is “Less-Dili-Concern”.
In the same order, the values of `CN(C)CCOC(C)(c1ccccc1)c1ccccn1` (stereo not drawn) [DOXYLAMINE] are 0 and “No-Dili-Concern”.
Regarding `CCCCCc1cc(O)c2c(c1)OC(C)(C)[C@@H]1CCC(C)=C[C@@H]21` [DRONABINOL], in the series filed under Homo sapiens [1], the DILI_severity_class turned out to be 3. The DILI_Concern entry in the series listed under Homo sapiens [2] is recorded as “Ambiguous-Dili-Concern”.
Take `CCCCc1oc2ccc(NS(C)(=O)=O)cc2c1C(=O)c1ccc(OCCCN(CCCC)CCCC)cc1` [DRONEDARONE]: the DILI_severity_class in the series filed under Homo sapiens [1] was 7. Besides, the DILI_Concern entry in the series listed under Homo sapiens [2] is on record as “Most-Dili-Concern”.
For `CN1c2c(oc(=O)n(-c3ccccn3)c2=O)-c2ccccc2S1(=O)=O` [DROXICAM] the same measures were 8 and “Most-Dili-Concern”.
In the same order, the values of `CNCC[C@H](Oc1cccc2ccccc12)c1cccs1` [DULOXETINE] are 8 and “Most-Dili-Concern”.
In the same order, the values of `C[C@]12C=CC(=O)N[C@@H]1CC[C@@H]1[C@@H]2CC[C@]2(C)[C@@H](C(=O)Nc3cc(C(F)(F)F)ccc3C(F)(F)F)CC[C@@H]12` [DUTASTERIDE] are 0 and “No-Dili-Concern”.
Regarding `Cn1c(=O)c2c(ncn2CC(O)CO)n(C)c1=O` (stereo not drawn) [DYPHYLLINE], the DILI_severity_class in the series listed under Homo sapiens [1] was 0. The DILI_Concern entry in the series filed under Homo sapiens [2] is “No-Dili-Concern”.
As to `NC(N)=Nc1nc(CSCCN/C=N/S(=O)(=O)c2ccc(Br)cc2)cs1` [EBROTIDINE], in the series listed under Homo sapiens [1], the DILI_severity_class is 8. In the series filed under Homo sapiens [2], the DILI_Concern entry is reported as “Most-Dili-Concern”.
For `O=C(O)CN(CCN(CC(=O)O)CC(=O)O)CC(=O)O` [EDETIC ACID] the same measures were 3 and “Ambiguous-Dili-Concern”.
As to `CC[N+](C)(C)c1cccc(O)c1` [EDROPHONIUM], the DILI_severity_class in the series listed under Homo sapiens [1] turned out to be 0. Further, the DILI_Concern result in the series listed under Homo sapiens [2] is “No-Dili-Concern”.
For `O=C1Nc2ccc(Cl)cc2[C@@](C#CC2CC2)(C(F)(F)F)O1` [EFAVIRENZ] the same measures were 7 and “Most-Dili-Concern”.
For `CC1=NN(c2ccc(C)c(C)c2)C(=O)/C1=N\Nc1cccc(-c2cccc(C(=O)O)c2)c1O.NCCO.NCCO` [ELTROMBOPAG OLAMINE] the same measures were 4 and “Most-Dili-Concern”.
On to `Nc1nc(=O)n([C@@H]2CS[C@H](CO)O2)cc1F` [EMTRICITABINE], for which the DILI_severity_class in the series filed under Homo sapiens [1] was 2. The DILI_Concern entry in the series listed under Homo sapiens [2] is recorded as “Ambiguous-Dili-Concern”.
For `C[C@H](N[C@@H](CCc1ccccc1)C(=O)O)C(=O)N1CCC[C@H]1C(=O)O` [ENALAPRILAT ANHYDROUS], in the series listed under Homo sapiens [1], the DILI_severity_class amounted to 7. Also, the DILI_Concern entry in the series listed under Homo sapiens [2] is “Ambiguous-Dili-Concern”.
Turning to `CCN(CC)C(=O)/C(C#N)=C/c1cc(O)c(O)c([N+](=O)[O-])c1` [ENTACAPONE], in the series filed under Homo sapiens [1], the DILI_severity_class was 0. In the series listed under Homo sapiens [2], the DILI_Concern result is given as “Less-Dili-Concern”.
In the same order, the values of `CN[C@@H](C)[C@H](O)c1ccccc1` [EPHEDRINE] are 0 and “No-Dili-Concern”.
Take `CNC[C@H](O)c1ccc(O)c(O)c1` [EPINEPHRINE]: the DILI_severity_class in the series listed under Homo sapiens [1] is listed as 0. In the series listed under Homo sapiens [2], the DILI_Concern entry is “No-Dili-Concern”.
In the same order, the values of `COc1cccc2c1C(=O)c1c(O)c3c(c(O)c1C2=O)C[C@@](O)(C(=O)CO)C[C@@H]3O[C@H]1C[C@H](N)[C@@H](O)[C@H](C)O1` [EPIRUBICIN] are 3 and “Ambiguous-Dili-Concern”.
On to `COC(=O)[C@@H]1CC2=CC(=O)CC[C@]2(C)[C@@]23O[C@@H]2C[C@@]2(C)[C@@H](CC[C@@]24CCC(=O)O4)[C@H]13` [EPLERENONE], for which the DILI_severity_class in the series filed under Homo sapiens [1] is reported as 4. Further, in the series filed under Homo sapiens [2], the DILI_Concern entry is recorded as “Ambiguous-Dili-Concern”.
Turning to `CCCCC[C@H](O)/C=C/[C@@H]1[C@H]2C/C(=C/CCCC(=O)O)O[C@H]2C[C@H]1O` [EPOPROSTENOL], the DILI_severity_class in the series filed under Homo sapiens [1] is given as 7. In addition, in the series filed under Homo sapiens [2], the DILI_Concern entry is reported as “Ambiguous-Dili-Concern”.
Regarding `CCCCc1ncc(/C=C(\Cc2cccs2)C(=O)O)n1Cc1ccc(C(=O)O)cc1` [EPROSARTAN], the DILI_severity_class in the series listed under Homo sapiens [1] worked out at 3. For the same compound, the DILI_Concern result in the series filed under Homo sapiens [2] is reported as “Ambiguous-Dili-Concern”.
In the same order, the values of `N=C(N)NCCCC[C@@H]1NC(=O)CCSSC[C@@H](C(N)=O)NC(=O)[C@@H]2CCCN2C(=O)[C@H](Cc2c[nH]c3ccccc23)NC(=O)[C@H](CC(=O)O)NC(=O)CNC1=O` [EPTIFIBATIDE] ([Mpa][hArg]GDWPC-NH2; disulfide 1-7) are 0 and “No-Dili-Concern”.
As for `C=C1CC[C@H](O)C/C1=C/C=C1\CCC[C@]2(C)[C@@H]([C@H](C)/C=C/[C@H](C)C(C)C)CC[C@@H]12` [ERGOCALCIFEROL], the DILI_severity_class in the series listed under Homo sapiens [1] stood at 0. Further, the DILI_Concern result in the series listed under Homo sapiens [2] is listed as “No-Dili-Concern”.
In the same order, the values of `C#Cc1cccc(Nc2ncnc3cc(OCCOC)c(OCCOC)cc23)c1` [ERLOTINIB] are 8 and “Most-Dili-Concern”.
In the same order, the values of `CC[C@H]1OC(=O)[C@H](C)[C@@H](O[C@H]2C[C@@](C)(OC)[C@@H](O)[C@H](C)O2)[C@H](C)[C@@H](O[C@@H]2O[C@H](C)C[C@H](N(C)C)[C@H]2O)[C@](C)(O)C[C@@H](C)C(=O)[C@H](C)[C@@H](O)[C@]1(C)O` [ERYTHROMYCIN] are 5 and “Most-Dili-Concern”.
For `CN(C)CCC[C@@]1(c2ccc(F)cc2)OCc2cc(C#N)ccc21` [ESCITALOPRAM] the same measures were 7 and “Less-Dili-Concern”.
Turning to `COC(=O)CCc1ccc(OCC(O)CNC(C)C)cc1` (stereo not drawn) [ESMOLOL], the DILI_severity_class in the series filed under Homo sapiens [1] is on record as 0. For the same compound, the DILI_Concern entry in the series filed under Homo sapiens [2] is “No-Dili-Concern”.
As to `Clc1ccc2c(c1)C(c1ccccc1)=NCc1nncn1-2` [ESTAZOLAM], in the series listed under Homo sapiens [1], the DILI_severity_class turned out to be 0. The DILI_Concern result in the series listed under Homo sapiens [2] is recorded as “No-Dili-Concern”.
For `C[C@]12CC[C@@H]3c4ccc(O)cc4CC[C@H]3[C@@H]1CC[C@@H]2O` [ESTRADIOL], the DILI_severity_class in the series filed under Homo sapiens [1] is 2. In the series filed under Homo sapiens [2], the DILI_Concern entry is reported as “Less-Dili-Concern”.
For `C[C@]12CC[C@@H]3c4ccc(OC(=O)N(CCCl)CCCl)cc4CC[C@H]3[C@@H]1CC[C@@H]2O` [ESTRAMUSTINE] the same measures were 4 and “Most-Dili-Concern”.
For `C[C@]12CC[C@@H]3c4ccc(O)cc4CC[C@H]3[C@@H]1CCC2=O` [ESTRONE] the same measures were 2 and “Ambiguous-Dili-Concern”.
For `C1CNCCN1.C[C@]12CC[C@@H]3c4ccc(OS(=O)(=O)O)cc4CC[C@H]3[C@@H]1CCC2=O` [ESTROPIPATE] the same measures were 2 and “Ambiguous-Dili-Concern”.
Turning to `CN1CCN(C(=O)O[C@H]2c3nccnc3C(=O)N2c2ccc(Cl)cn2)CC1` [ESZOPICLONE], the DILI_severity_class in the series filed under Homo sapiens [1] is 3. Further, the DILI_Concern entry in the series filed under Homo sapiens [2] is “Ambiguous-Dili-Concern”.
For `C=C(CC)C(=O)c1ccc(OCC(=O)O)c(Cl)c1Cl` [ETHACRYNIC ACID] the same measures were 5 and “Ambiguous-Dili-Concern”.
For `CC[C@@H](CO)NCCN[C@@H](CC)CO` [ETHAMBUTOL] the same measures were 8 and “Most-Dili-Concern”.
Consider `CCCCCCCC/C=C\CCCCCCCC(=O)O.NCCO` [ETHANOLAMINE OLEATE], for which the DILI_severity_class in the series listed under Homo sapiens [1] is 0. Besides, the DILI_Concern entry in the series filed under Homo sapiens [2] is “No-Dili-Concern”.
In the same order, the values of `CCc1cc(C(N)=S)ccn1` [ETHIONAMIDE] are 3 and “Less-Dili-Concern”.
For `CCC1(C)CC(=O)NC1=O` (stereo not drawn) [ETHOSUXIMIDE], the DILI_severity_class in the series filed under Homo sapiens [1] was determined as 3. Besides, in the series listed under Homo sapiens [2], the DILI_Concern entry is “Ambiguous-Dili-Concern”.
For `CCN1C(=O)NC(c2ccccc2)C1=O` (stereo not drawn) [ETHOTOIN] the same measures were 3 and “Ambiguous-Dili-Concern”.
In the same order, the values of `CC(O)(P(=O)(O)O)P(=O)(O)O` [ETIDRONIC ACID] are 0 and “No-Dili-Concern”.
For `CCc1cccc2c3c([nH]c12)C(CC)(CC(=O)O)OCC3` (stereo not drawn) [ETODOLAC] the same measures were 8 and “Most-Dili-Concern”.
For the compound `CCOC(=O)c1cncn1[C@H](C)c1ccccc1` [ETOMIDATE], in the series filed under Homo sapiens [1], the DILI_severity_class was found to be 0. Also, the DILI_Concern result in the series filed under Homo sapiens [2] is “No-Dili-Concern”.
In the same order, the values of `C#C[C@]1(O)CC[C@H]2[C@@H]3CCC4=CC(=O)CC[C@@H]4[C@H]3C(=C)C[C@@]21CC` [ETONOGESTREL] are 5 and “Ambiguous-Dili-Concern”.
With `COc1cc([C@@H]2c3cc4c(cc3[C@@H](O[C@@H]3O[C@@H]5CO[C@@H](C)O[C@H]5[C@H](O)[C@H]3O)[C@H]3COC(=O)[C@H]23)OCO4)cc(OC)c1O` [ETOPOSIDE], the DILI_severity_class in the series listed under Homo sapiens [1] is on record as 3. Moreover, the DILI_Concern entry in the series filed under Homo sapiens [2] is recorded as “Less-Dili-Concern”.
Regarding `Cc1cc(C#N)cc(C)c1Oc1nc(Nc2ccc(C#N)cc2)nc(N)c1Br` [ETRAVIRINE], in the series filed under Homo sapiens [1], the DILI_severity_class is reported as 8. Also, in the series filed under Homo sapiens [2], the DILI_Concern result is reported as “Most-Dili-Concern”.
For `CO[C@H]1C[C@@H]2CC[C@@H](C)[C@@](O)(O2)C(=O)C(=O)N2CCCC[C@H]2C(=O)O[C@H]([C@H](C)C[C@@H]2CC[C@@H](OCCO)[C@H](OC)C2)CC(=O)[C@H](C)/C=C(\C)[C@@H](O)[C@@H](OC)C(=O)[C@H](C)C[C@H](C)/C=C/C=C/C=C/1C` [EVEROLIMUS] the same measures were 4 and “Ambiguous-Dili-Concern”.
In the same order, the values of `C/C(=N\O)C(C)NCC(C)(C)CNC(C)/C(C)=N/O` (stereo not drawn) [EXAMETAZIME] are 0 and “No-Dili-Concern”.
